Measured values: paper PMC7506137, “Selective Phosphodiesterase 1 Inhibitor BTTQ Reduces Blood Pressure in Spontaneously Hypertensive and Dahl Salt Sensitive Rats: Role of Peripheral Vasodilation” (Frontiers in Physiology, 2020)

Assays:
[1] = tested on: mesenteric arteries from Dahl SS rats; assay: Myography in isolated mesenteric arteries; set-up: species or system Rat
Description: For studies of the mesenteric arteries, rats were anesthetized using 5% isoflurane gas followed by euthanasia by secondary method. Small mesenteric arteries (∼300-μm internal diameter, 350-μm external diameter) supplying the small intestine were carefully excised under a dissecting microscope (Leica; Buffalo, NY, United States) and immersed in a cold physiological salt solution having the following ionic composition (in mM): NaCl (119.0), KCl (4.7), CaCl2 (1.6), NaH2PO4 (1.18), MgSO4 (1.17), NaHCO3 (24.0), D-glucose (5.5), and EDTA (0.03). The arteries were cannulated at the proximal and distal ends using glass micropipettes. The vessels were equilibrated with a 21% O2, 5% CO2, 74% N2 gas mixture at 37°C in the physiological salt solution for 30 min. The intraluminal pressure was maintained at 80 mmHg to approximate in vivo conditions, and the internal diameter of the artery was measured using television microscopy. Responses to vasodilator stimuli (different BTTQ concentrations) were determined in arteries precontracted with 10 μM phenylephrine (PE) and expressed as % increase from basal (PE-precontracted) diameter. Responses of the mesenteric arteries to the endothelium-dependent vasodilator agonist acetylcholine (ACh) were evaluated in SS rats fed a high salt diet (4% NaCl) for 3 weeks and treated with BTTQ (3 mg/kg) p.o. gavage twice daily or vehicle.

[2] = Rat PK parameters (IV and oral); format: in vivo

% of dose recovered in urine [2]: 0.4%
clearance ([2]; in vivo, 1 mg/kg, IV 1 mpk, mean ± SD, 3 animals): 3.2 ± 0.6 mL/min/kg
Vd ([2]; in vivo, 1 mg/kg, IV 1 mpk, mean ± SD, 3 animals, read-out: IV Vdss): 0.6 ± 0.04 L/kg
half-life ([2]; in vivo, 1 mg/kg, IV 1 mpk, mean ± SD, 3 animals, read-out: IV t1/2 (converted)): 2.7 ± 0.5 h
bioavailability ([2]; in vivo, IV 1 mpk and oral 10 mpk, mean ± SD, 3 animals): 58 ± 20%
Structure (SMILES): O=c1c2nnc(C3(C4CC4)CC3)n2c2c(n1CC1CC1)CCCC2 [BTTQ, 1-[1,1′-bi(cyclopropyl)-1-yl]-5-(cyclopropylmethyl)-6,7,8,9-tetrahydro[1,2,4]triazolo[4,3-A]quinoxaline-4(5H)-one]
relaxation, % of the initial fully relaxed diameter ([1]; 1 mM, arteries pre-constricted with 10 μM phenylephrine): about 92%
acetylcholine-induced vasorelaxation, treated vs vehicle group ([1]; arteries from Dahl SS rats treated by oral gavage (3 mg/kg twice daily), high salt diet 21 days): no significant difference
relaxation of mesenteric arteries compared to the vehicle ([1]; escalating concentrations, pre-constricted with 10 μM phenylephrine): concentration-dependent relaxation
